Earlier results, collected in US20170101350A1, “SYNTHETIC ACID COMPOSITIONS AND USES THEREOF” (priority 2014, published 2017).

Settings: death in 2-3 minutes

**Q.** For `Cl` [hydrogen chloride gas, hydrogen chloride], which “levels at which death can occur” value is on record?
**A.** 1300-2000 ppm
